# Results taken from PMC3087488 (Journal of Oncology, 2011).
# What was measured:
# [1] = tested on: advanced solid tumors; experiment: tumor response per modified RECIST; details: for Confirmed complete response / Confirmed objective response, % (95% CI) / Confirmed partial response / Durable stable disease (≥24 weeks) / Progressive disease / Stable disease / Unevaluable / Clinical benefit rate (CR + PR + durable SD): gemcitabine/cisplatin
# [2] = tested on: Kit; set-up: method as in PMID 16951187; details: cited from earlier work
# [3] = tested on: human umbilical vein endothelial cell (HUVEC) proliferation; set-up: method as in PMID 16951187; details: cited from earlier work
# [4] = phase 1b dose escalation: dose-limiting toxicities and MTD; details: in combination with panitumumab and gemcitabine/cisplatin; patients with advanced solid tumors
# [5] = tested on: cytochrome P 450 3A; details: cited from earlier work
# [6] = motesanib plasma pharmacokinetics in patients; format: in vivo, human
# Description: Plasma motesanib and gemcitabine concentrations were analyzed using a validated liquid chromatography/tandem mass spectrometry (LC-MS/MS) method, respectively. […] All pharmacokinetic parameter estimates were calculated using standard noncompartmental methods and WinNonlin Professional software on […] (Version 5.1.1, Pharsight Corporation, Mountain View, Calif, USA).
# [7] = tested on: VEGFR3; set-up: method as in PMID 16951187; details: cited from earlier work
# [8] = tested on: VEGFR1; set-up: method as in PMID 16951187; details: cited from earlier work
# [9] = tested on: PDGFR; set-up: method as in PMID 16951187; details: cited from earlier work
# [10] = motesanib 50 mg QD (n = 8) + panitumumab
# [11] = motesanib 75 mg BID (n = 2) + panitumumab
# [12] = motesanib 75 mg QD (n = 6) + panitumumab
# [13] = motesanib 100 mg QD (n = 6) + panitumumab
# [14] = motesanib 125 mg QD (n = 11) + panitumumab
structure (smiles),measurement,setting,value
CC1(C)CNc2cc(NC(=O)c3cccnc3NCc3ccncc3)ccc21 [motesanib],patients with durable (≥24 weeks) stable disease,[1]; all 41 patients,six
same,patients with confirmed partial response,[1]; all 41 patients incl. 0-mg cohort,9 patients
same,confirmed objective response,"[1]; all 41 patients incl. 0-mg cohort, 10 patients, 95% CI, 12.4–40.3",24%
same,patients with best response of stable disease,"[1]; all 41 patients, twenty patients",49%
same,median progression-free survival,[1]; all patients,197 days
same,Kaplan-Meier estimate of median progression-free survival,"[1]; all patients, 95% CI: 2.8—not estimable",28 weeks
same,patients with complete response as best objective response,"[1]; all patients, breast cancer",One
same,Confirmed complete response,[1]; [10],0 (0) n (%)
same,"Confirmed objective response, % (95% CI)",[1]; [10],0 (0–36.9) %
same,Confirmed partial response,[1]; [10],0 (0) n (%)
same,Durable stable disease (≥24 weeks),[1]; [10],0 (0) n (%)
same,Progressive disease,[1]; [10],2 (25) n (%)
same,Stable disease,[1]; [10],5 (63) n (%)
same,Unevaluable,[1]; [10],0 (0) n (%)
same,Clinical benefit rate (CR + PR + durable SD),[1]; [11],2 (100) n (%)
same,Confirmed complete response,[1]; [11],0 (0) n (%)
same,"Confirmed objective response, % (95% CI)",[1]; [11],50 (1.3–98.7) %
same,Confirmed partial response,[1]; [11],1 (50) n (%)
same,Durable stable disease (≥24 weeks),[1]; [11],0 (0) n (%)
same,Progressive disease,[1]; [11],0 (0) n (%)
same,Stable disease,[1]; [11],1 (50) n (%)
same,Unevaluable,[1]; [11],0 (0) n (%)
same,Confirmed complete response,[1]; [12],0 (0) n (%)
same,"Confirmed objective response, % (95% CI)",[1]; [12],17 (0.4–64.1) %
same,Confirmed partial response,[1]; [12],1 (17) n (%)
same,Durable stable disease (≥24 weeks),[1]; [12],3 (50) n (%)
same,Progressive disease,[1]; [12],0 (0) n (%)
same,Stable disease,[1]; [12],4 (67) n (%)
same,Unevaluable,[1]; [12],1 (17) n (%)
same,Clinical benefit rate (CR + PR + durable SD),[1]; [13],6 (100) n (%)
same,Confirmed partial response,[1]; [13],3 (50) n (%)
same,Durable stable disease (≥24 weeks),[1]; [13],1 (17) n (%)
same,Progressive disease,[1]; [13],0 (0) n (%)
same,Stable disease,[1]; [13],2 (33) n (%)
same,Unevaluable,[1]; [13],0 (0) n (%)
same,Clinical benefit rate (CR + PR + durable SD),[1]; [14],6 (55) n (%)
same,Confirmed complete response,[1]; [14],0 (0) n (%)
same,"Confirmed objective response, % (95% CI)",[1]; [14],18 (2.3–51.8) %
same,Confirmed partial response,[1]; [14],2 (18) n (%)
same,Durable stable disease (≥24 weeks),[1]; [14],1 (9) n (%)
same,Progressive disease,[1]; [14],1 (9) n (%)
same,Stable disease,[1]; [14],4 (36) n (%)
same,Unevaluable,[1]; [14],1 (9) n (%)
same,"patients with complete response, partial response, or stable disease as best response",[1]; of the 41 patients enrolled,30 patients
same,90% inhibitory concentration (IC90) for HUVEC proliferation,[3],0.028 µg/mL
same,IC50 for HUVEC proliferation,[3],0.004 µg/mL
same,maximum tolerated dose (MTD) of motesanib,[4],100 mg QD
same,route of metabolism,[5],primarily metabolized by glucuronidation and cytochrome P 450 3A-mediated oxidation
same,concentration at 24 h,"[6]; human, in vivo, mean daily motesanib C 24 (above IC50 for HUVEC proliferation)",> 4 ng/mL
same,concentration at 24 h,"[6]; human, in vivo, mean daily motesanib C 24 (higher than IC90 for HUVEC proliferation)",> 28 ng/mL
same,half-life,"[6]; human, in vivo, mean estimated terminal elimination half-life (t 1/2,z)",5.21 to 6.72 h
same,Tmax,"[6]; human, in vivo, po",~1 h
same,"C max, mean (SD)","[6]; motesanib 75 mg QD (n = 3 − 6), single dose, + panitumumab, gemcitabine/cisplatin",186 (92) ng/mL
same,IC50,[9],84 nM
